{"source": "paper PMC9224512", "about": "“New Insights into the Determinants of Specificity in Human Type I Arginase: Generation of a Mutant That Is Only Active with Agmatine as Substrate” (International Journal of Molecular Sciences, 2022)", "assay_type_in_all_cases": "biochemical", "key": {"[1]": {"target": "T1, human arginase type I S137C (Homo sapiens, UniProt P05089, S137C)", "T1 sequence (P05089 1-322 S137C)": "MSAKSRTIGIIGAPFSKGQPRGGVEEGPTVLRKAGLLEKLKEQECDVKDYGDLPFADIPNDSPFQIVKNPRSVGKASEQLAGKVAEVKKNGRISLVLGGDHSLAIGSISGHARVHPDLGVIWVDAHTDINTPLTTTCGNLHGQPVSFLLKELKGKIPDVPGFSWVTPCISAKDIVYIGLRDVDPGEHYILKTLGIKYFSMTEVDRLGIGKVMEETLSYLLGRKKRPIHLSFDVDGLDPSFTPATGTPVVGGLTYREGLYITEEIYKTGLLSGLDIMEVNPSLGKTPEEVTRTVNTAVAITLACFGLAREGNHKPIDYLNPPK", "experiment": "Kinetic and inhibition studies, S137C mutant", "protocol": "(§1) Bacterial cultures were grown with shaking at 37 °C in Luria Broth media, in the presence of ampicillin (100 μg/mL). The wild-type and mutant human liver arginase cDNAs were directionally cloned into the pBluescript II KS(+) expression vector and then expressed in E. coli JM109, following induction with 1 mM isopropyl β-D-thiogalactopyranoside. The bacterial cells were disrupted by sonication on ice (5 × 30 s pulses), centrifuged for 20 min at 12,000× g, and the obtained supernatant was precipitated with ammonium sulfate (60% saturation). The pellet, collected by centrifugation at 12,000× g for 10 min, was re-suspended in buffer 5 mM Tris–HCl (pH 7.5) containing 2 mM MnCl2 and dialyzed for 6 h at 4 °C against the same buffer. After incubation with 5 mM MnCl2 for 10 min at 60 °C, the enzyme variants were purified as previously described. The purity of the enzymes was evaluated by SDS–PAGE stained by Coomassie blue and immunodetection using an anti- rat arginase I antibody.\n(§2) The single, double, triple, and chimera variants of human arginase type I were obtained by PCR, using the QuickChange site-directed mutagenesis kit (Stratagene, La Jolla, CA, USA); the plasmid pBluescript II KS(+) containing the human liver arginase cDNA was used as template. To obtain the chimeric species of human arginase type I, serial mutations were made in each loop to be modified, using as template DNA the wild-type arginase gene or the previous done mutation, subcloned in the plasmid pBluescript II KS (+). Specifically, the residues present in the arginase structure were replaced by those corresponding to the agmatinase sequence of E. coli.\n(§3) All assays were initiated by adding the enzyme to a previously equilibrated buffer with the substrate in solution (the concentrations of used substrates were between 0.2–3 fold the Km). Urea was determined by a colorimetric method with α-isonitrosopropiophenone. The protein concentrations were determined by the Bradford’s method, with bovine serum albumin as standard. Initial velocity and enzymatic inhibition experiments were performed in duplicate and repeated three times. The inhibitory patterns were initially determined by double reciprocal plots and re-plots of intercepts and slopes versus inhibitor concentrations. […] Velocities are expressed as μmol of urea/10 min."}, "[2]": {"target": "T2, human arginase type I N139D (Homo sapiens, UniProt P05089, N139D)", "T2 sequence (P05089 1-322 N139D)": "T1 sequence (P05089 1-322 S137C) with C137S, N139D", "experiment": "Kinetic and inhibition studies, N139D mutant", "protocol": "as §1, §2, §3"}, "[3]": {"target": "T3, human arginase type I N130D-S137C (Homo sapiens, UniProt P05089, N130D/S137C)", "T3 sequence (P05089 1-322 N130D/S137C)": "T1 sequence (P05089 1-322 S137C) with N130D", "experiment": "Kinetic and inhibition studies, N130D-S137C mutant", "protocol": "as §1, §2\n(§4) All assays were initiated by adding the enzyme to a previously equilibrated buffer with the substrate in solution (the concentrations of used substrates were between 0.2–3 fold the Km). Urea was determined by a colorimetric method with α-isonitrosopropiophenone. The protein concentrations were determined by the Bradford’s method, with bovine serum albumin as standard. […]"}, "[4]": {"target": "T4, human arginase type I N130D-S137C-N139D (Homo sapiens, UniProt P05089, N130D/N139D/S137C)", "T4 sequence (P05089 1-322 N130D/S137C/N139D)": "T1 sequence (P05089 1-322 S137C) with N130D, N139D", "experiment": "Kinetic and inhibition studies, triple mutant", "protocol": "as §1, §2, §4"}, "[5]": {"target": "T5, type I human arginase D181T/V182E + ins F (Homo sapiens, UniProt P05089, D181E/D181T/INS180T/V182E/V182F)", "T5 sequence (P05089 with tags, fused parts or gaps INS180T/D181E/V182F)": "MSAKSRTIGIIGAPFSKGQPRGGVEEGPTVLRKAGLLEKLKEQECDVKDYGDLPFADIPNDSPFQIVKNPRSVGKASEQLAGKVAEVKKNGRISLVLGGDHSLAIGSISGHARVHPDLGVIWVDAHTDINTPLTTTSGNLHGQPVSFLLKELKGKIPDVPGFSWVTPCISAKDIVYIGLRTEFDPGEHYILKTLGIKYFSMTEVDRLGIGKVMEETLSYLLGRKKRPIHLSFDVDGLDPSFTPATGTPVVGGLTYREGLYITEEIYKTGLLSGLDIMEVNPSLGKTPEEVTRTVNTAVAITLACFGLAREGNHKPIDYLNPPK", "experiment": "Kinetic and inhibition studies, D181T/V182E + ins F", "conditions": "substrate arginine", "protocol": "as §1, §2, §3"}, "[6]": {"conditions": "substrate = labelled compound, pH 9.5, 2 mM Mn2+"}}, "note": "Numbering of substitutions follows the chain as printed.", "data": [{"compound": "NCCC[C@H](N)C(=O)O", "note": "[Ornithine, L-ornithine]", "values": [{"measurement": "Ki", "setting": "[1]; read-out: Ki^orn", "result": 7.6, "unit": "mM"}, {"measurement": "Ki", "setting": "[2]; read-out: Ki^orn", "result": 6.2, "unit": "mM"}, {"measurement": "Ki", "setting": "[3]; read-out: Ki^orn", "result": 7.1, "unit": "mM"}, {"measurement": "Ki", "setting": "[4]; read-out: Ki^orn", "result": 5.4, "unit": "mM"}, {"measurement": "Inhibition type", "setting": "[5]", "result": "Competitive"}, {"measurement": "Kis", "setting": "[5]", "result": "18 ± 6", "unit": "mM"}]}, {"compound": "N=C(N)NCCC[C@H](N)C(=O)O", "note": "[Arginine, L-arginine]", "values": [{"measurement": "kcat", "setting": "[1]; substrate = labelled compound", "result": 75, "unit": "s⁻¹"}, {"measurement": "Km", "setting": "[1]; [6]", "result": 3.2, "unit": "mM"}, {"measurement": "kcat", "setting": "[2]; substrate = labelled compound", "result": 64, "unit": "s⁻¹"}, {"measurement": "Km", "setting": "[2]; [6]", "result": 4.4, "unit": "mM"}, {"measurement": "kcat", "setting": "[3]; substrate = labelled compound", "result": 23, "unit": "s⁻¹"}, {"measurement": "Km", "setting": "[3]; [6]", "result": 6.5, "unit": "mM"}, {"measurement": "kcat", "setting": "[4]; substrate = labelled compound", "result": 4, "unit": "s⁻¹"}, {"measurement": "Km", "setting": "[4]; [6]", "result": 6.9, "unit": "mM"}, {"measurement": "kcat", "setting": "[5]", "result": "8.1 ± 1", "unit": "s⁻¹"}, {"measurement": "kcat, times lower than the wild-type arginase", "setting": "[5]", "result": 24, "unit": "times"}, {"measurement": "Km", "setting": "[5]; pH 9.5, 2 mM Mn2+", "result": "20 ± 5", "unit": "mM"}]}]}
